Experiments:
15N-labelled VIM-2 = biological target: T1, 15N-labelled VIM-2 (Escherichia coli, UniProt Q5U7L7); assay: 1H,15N-HSQC titration of VIM-2; type: binding; details: 10 equivalents of compound, 600 MHz, pH 7.0, 25 °C
T1 construct: made in house
Description: The ^1H, ^15N-HSQC spectra for the titration experiments were recorded on a Bruker Avance Neo 600 MHz spectrometer equipped with a 5 mm TCI cryogenic probe at 25 °C. The U-[^15N]-labeled VIM-2 was prepared in a buffer of 20 mM KPO4, 0.1 mM ZnCl2, at pH 7.0, containing 85% H2O/15% D2O at a concentration of 0.25 mM. The U-[^15N]-labeled NDM-1 was used in a buffer of 20 mM HEPES, 0.1 mM ZnCl2, at pH 7.0, containing 85% H2O/15% D2O at a concentration of 0.25 mM. The ligands 5d, 5g, 5i, 5j (for VIM-2 titrations) and 5 f (for NDM-1 titration) were dissolved in the same buffer as the corresponding enzymes. Spectra were recorded using solvent suppression, 1024 points in f1, 16 transients, 512 increments in f2 and a relaxation delay of 0.2 s. The titrations were carried out with 0, 0.25, 0.50, 1.00, 1.50, 2.25, 3.00, 4.00, 5.00, 7.00, 10.0 equivalents of the inhibitors.
Figure S47. Superimposition of the 1H,15N-HSQC spectrum (600 MHz, pH 7.0, 25 °C) of
VIM-2 in the absence (blue) and in the presence (green) of 10 molar equivalent of compound
5j. Buffer: 20 mM KPO4, 0.1 mM ZnCl2, with 15% D2O.
Chemical shift perturbation values (CSP, ΔδNH) were calculated as the weighted average of
the chemical shift changes in f1 (ΔδN) and f2 (ΔδH) dimensions using the following equation 8:
∆δ = √∆δ 2 + ( N ); R = 6.5
Figure S48. Linear regression of the chemical shift perturbations of compound 5g (IC50 =
12 μM) as a function of the chemical shift perturbations of compounds 5c (yellow circle), 5d
(grey square), 5i (green triangle) and 5j (blue circle) for VIM-2. The data of the studied […]

[1] = Long term stability in buffer with 2.5% DMSO (LC-MS); type: physicochemical; details: 20 mM KPO4, 0.1 mM ZnCl2, pH 7.0 + 2.5% DMSO; LC-MS 254 nm
Text: Reagents, reactants, solvents and drying agents for synthesis, work-up and purification were purchased from commercial vendors (Sigma-Aldrich, VWR, Merck, Fluorochem, Thermo Fisher Scientific, Solveco), and if not stated otherwise they were used without further purification. Reactions and long term stability of the final compounds in buffer were monitored using LC-MS (Agilent 1260 Infinity II) equipped with an ESI-Q detector (Infinitylab LC-MSD) using Agilent InfinityLab Poroshell 120 C18 columns (2.7 μm, ϕ 2.1 mm L 50 mm or 2.7 μm, ϕ 4.6 mm L 50 mm). The intermediates were purified using VWR silica gel 60 (40–63 μm) with a Biotage Isolera One flash column chromatography instrument. The final products were purified with preparative RP-HPLC (VWR LaPrep P110) with single wavelength detection (254 nm), using a Kinetex C8 column (5 μm, 100 Å, ϕ 21.2 mm L 250 mm) and gradients of CH3CN/H2O + 0.1% formic acid as the mobile phase at a 10 mL/min flow rate. Analytical HPLC data were acquired on a VWR LaChrome ELITE system using an ACE3 C8 (3 μm, 300 Å, ϕ 3.0 mm L 100 mm) or a Kinetex C18 columns (5 μm, 100 Å, ϕ 3.0 mm L 150 mm). NMR spectra were recorded on a Varian Agilent MR400-DD2 400 MHz spectrometer equipped with a OneNMR probe, Bruker Avance Neo 500 MHz spectrometer equipped with a cryogenic TXO probe, or a Bruker Avance Neo 600 MHz spectrometer equipped with a TCI cryogenic probe. The chemical shifts are reported using the residual solvent signal as an indirect reference to TMS.
4. Long term stability of the final compounds in buffer with 2.5% DMSO
The long term stability of the final compounds in buffer (20 mM KPO4, 0.1 mM ZnCl2, pH 7.0 + 2.5% DMSO) were monitored using LC-MS (Agilent 1260 Infinity II) equipped with an ESI-Q detector (Infinitylab LC-MSD) using Agilent InfinityLab Poroshell 120 C18 column (2.7 μm, ϕ 4.6 mm L 50 mm) at 254 nm with a 7 min long gradient method (5% to 95% CH3CN) of CH3CN/H2O + 0.1% formic acid as the mobile phase at a 1.0 mL/min flow rate. The samples were measured right after dissolving them in buffer, and after 1 month of keeping the same samples dissolved in the same buffer. The main peaks (> 95%) and impurities with > 1% are […]
Figure S14. Compound 5a right after dissolving it in buffer.
Figure S15. Compound 5a kept in buffer for 1 month. […]

VIM-2 = VIM-2 (Escherichia coli, UniProt Q5U7L7); assay: Enzymatic metallo-β-lactamase assay on purified VIM-2; type: biochemical
Description: A few inhibitors were tested up to 1600 μM to ensure nearly complete inhibition. Solutions of 100 μL consisting of buffer, purified enzyme (1 nM for GIM-1 and VIM-2, 5 nM for NDM-1), inhibitor and reporter substrate nitrocefin (15 μM for VIM-2, 2 μM for GIM-1) or imipenem (30 μM for NDM-1) were incubated in triplicates on a 96 well plate for 5 min at 25 °C. Buffer solution consisted of 50 mM HEPES pH 7.2, 50 μM ZnSO4 and 0.4 mg/ml bovine serum albumine. Inhibitors were dissolved in DMSO but diluted to assure <2% DMSO in measured assay. Absorbance was measured at 482 nm (nitrocefin) and 300 nm (imipenem) on a SpectraMax M4 spectrophotometer. The initial velocity at each inhibitor concentration was analyzed in GraphPad Prism v9.3.1 and fitted to dose-response curves by non-linear regression (log [inhibitor] vs response) used to calculate IC50 (Supplementary Tables S2–5).

O=C(NC(c1ccccc1O)P(=O)(O)O)c1scc2c1CCCC2 (stereo not drawn) [5g]
Mean chemical shift perturbation, VIM-2 (15N-labelled VIM-2): 0.04 ppm
main peak Area% kept in buffer for 1 month [1]: 98.05%
main peak Area% right after dissolving in buffer [1]: 98.21%
Ki (VIM-2; approximated from Dixon plots (1/v vs [I]) at one constant substrate concentration, ± SE, read-out: Estimated inhibition constant Ki VIM-2): 43 ± 15 µM
logIC50 VIM-2 (VIM-2; log of IC50, ± SEM of logIC50): 1.06 ± 0.04 μM
IC50 (VIM-2; purified enzyme 1 nM, nitrocefin 15 μM, pH 7.2, 25 °C): 12 µM

Source: publication PMC12009420, “Dynamically chiral phosphonic acid-type metallo-β-lactamase inhibitors” (Communications Chemistry, 2025)
